Columns and labels:
[1] = tested on: Lew specific CTL precursors in splenocytes; experiment: Limiting dilution assay for CTL precursors in splenocytes after in vivo peptide; design: species or system rat; settings: for [CTL precursor frequency]^−1: PVG rats, single iv 2 mg, Lew stimulators
Protocol: The effect of peptides on CTL precursor frequencies in splenocytes was tested as follows. Limiting dilution analysis was carried out essentially as described (Moeller et al. 1993, supra; Skinner and Marbrook. J. Exp. Med. (1976) 143:1562). Briefly, spleens were removed from naive animals or from animals that had received an allograft a minimum of 60 days earlier and then teased into a single cell suspension. Responder cells were plated from 1000 to 40,000 cells per well (24 replicates per concentration) into round bottom microliter wells in RPMI 1640 supplemented with 10% fetal bovine serum (Hyclone, Logan, Utah), 2 mM L-glutamine, 5×10^−5M β-mercaptoethanol, 100 U/ml penicillin, 100 μg/ml streptomycin, 20% supernatant from Concanavalin A activated rat spleen cells, and 50 μM α-methyl mannoside. Then, 5×10^5 irradiated (2000 rads) stimulator cells were added to each well and plates were incubated in a humidified CO2 incubator. After 5 days, aliquots were removed and tested for lysis of ^51Cr-labeled Concanavalin A activated blasts. Aliquots of supernatant were counted in a gamma counter and CTL precursor frequency determined by linear regression (Skinner and Marbrook. 1976, supra). Wells were considered positive if specific release was >10%.
PVG (RT1^c) or ACI […] rats were treated with a single intravenous injection of saline or 2 mg of A2.75-84, B7.75-84, B2702.75-84, or RT1^a.75-84 peptide. Their spleens were removed on different days after peptide treatment, cultured under limiting dilution conditions for 5 days with irradiated (2000R) splenocytes from Lewis rats; i.e., Lew (RT1^1) stimulator cells, and assayed for lysis of ^51Cr-labeled Lew blasts. CTL precursor frequency was determined by linear regression analysis.

purified T cells = experiment: Proliferation assay: purified T cells stimulated by immobilized anti-CD3, 3H-thymidine incorporation; assay type: cell-based, human
Protocol: Cells and Cell Culture. PBL were isolated from normal donors by centrifugation over Ficoll-Hypaque. In some cases, T cells were purified from this preparation using the method of Secrist et al. [J. Exp. Med. (1993) 178:2123]. Briefly, cells isolated over Ficoll-Hypaque were incubated for 1 hour in Petri dishes. Nonadherent cells were passed over a nylon wool column and the resulting population was >90% CD3+ by FACS analysis. CD8+CTL lines specific for HLA-A2, B7, B27, B48, or Cw4 were generated and maintained in long-term culture as previously described [Buxton et al., J. Exp. Med. (1992) 175:809; Wesley et al., Hum. Immunol. (1993) 36:149]. Jurkat E6-1 and the T cell receptor negative Jurkat, JRT3-T3.5, were obtained from the American Type Culture Collection (ATCC; Rockville, Md.). Other cell lines used included the EBV transformed B cell lines JY, MS, C1R, and 721.221; K562 and HEL, erythroleukemia cell lines; the T cell tumors Peer, Hut-78 and HSB; the Burkitt's lymphoma cell lines Daudi and SUP B17 [Wright et al., J. Exp. Med. (1989) 169:1557], and the NK-like cell line YT2C2. […]
Proliferation Assay. […] Plates were harvested on a PHD Cell Harvester 24 hours later and [^3H]-thymidine incorporation determined by scintillation counting.
Peptides were evaluated for effects on the proliferation of purified T cells stimulated by immobilized anti-CD3 antibody. […]

cardiac allograft = experiment: Heterotopic cardiac allograft survival, Lew donor to ACI recipient; assay type: in vivo, rat; settings: peptide in two weeks before or 4 days after surgery plus CsA on days 0–4
From the text: Vascularized cardiac allografts were heterotypically transplanted into the abdomen of recipient rats using a modification of the technique of Ono and Lindsay (Ono and Lindsey J. Thorac. Cardiovasc. Surg. (1969) 57:225). Abdominal allografts were palpated on a daily basis to assess graft function, and rejection was deemed complete when palpable ventricular contractions ceased.
Cyclosporin A (CsA, Sandoz Pharmaceuticals Corporation, Base, Switzerland) dissolved in olive oil was given orally through a gavage tube at the indicated dose. Peptides were dissolved in water or saline and given intravenously or by gavage as indicated.
Since the B7.75-84 and B2702.75-84 peptides blocked cellular immunity in vivo, we examined their effects on allograft survival in rats. ACI (RT1^a) recipients were given abdominal heterotopic heart allografts from Lew donors (Moeller et al. 1993, supra; Ono and Lindsey. 1969, supra). Graft function was monitored by daily abdominal palpation, and rejection was scored as complete when the palpable ventricular contractions ceased.

Sequence: RENLRIALRY [B2702.75–84]
- [CTL precursor frequency]^−1 ([1]; 0 days after peptide injection): 54,631
- [CTL precursor frequency]^−1 ([1]; 1 day after peptide injection): 54,631
- [CTL precursor frequency]^−1 ([1]; 7 days after peptide injection): 465,572
- [CTL precursor frequency]^−1 ([1]; 10 days after peptide injection): 468,071
- precursor frequency of Lew specific cells in splenocytes ([1]; treated on the day of splenectomy or 24 hours earlier, compared with approximately 1 in 55,000): The same frequency
- inhibition of proliferation of purified T cells stimulated by immobilized anti-CD3 antibody (purified T cells): do not
- rejection of transplants with peptide plus CsA (cardiac allograft): rejected similarly to allografts in animals treated with CsA alone

— patent publication US7011834B1, “Immunomodulating dimers” (The Board of Trustees of Leland Stanford Junior University, priority 1987, dated 2006)
